For ten molecules, inhibition in vivo and IC50 results are on record in ChEMBL document CHEMBL1147584, “Antimalarial activity of phenazines from lapachol, beta-lapachone and its derivatives against Plasmodium falciparum in vitro and Plasmodium berghei in vivo” (Bioorg Med Chem Lett, 2004).

Test [1] relates to Plasmodium berghei. The test is described as follows: Inhibition of Plasmodium berghei infection in mice (Mus musculus) at 200 mg/kg peroral dose (expt 1). As to conditions: route oral. It is filed as functional.
Test [2] relates to Plasmodium berghei. The test is described as follows: Inhibition of Plasmodium berghei infection in mice (Mus musculus) at 200 mg/kg peroral dose (expt 2). As to conditions: route oral. It is filed as functional.
For test [3], the system named is Plasmodium falciparum. Briefly: In vitro antimalarial activity for Plasmodium falciparum D6. It is filed as functional, organism-based.
The subject of test [4] is Plasmodium falciparum. Briefly: In vitro antimalarial activity for Plasmodium falciparum BHz26/86. The class given is functional, organism-based.
The test system of test [5] is Plasmodium falciparum. Briefly: In vitro antimalarial activity for Plasmodium falciparum W2. The class given is functional, organism-based.
The test system of test [6] is Plasmodium falciparum. The test is described as follows: In vitro antimalarial activity for Plasmodium falciparum HB3. It is filed as functional, organism-based.
The subject of test [7] is Plasmodium berghei. Briefly: Inhibition of Plasmodium berghei infection in mice (Mus musculus) at 25 mg/kg peroral dose (experiment 1). It is filed as functional. As to conditions: route oral.
Test [8] has as its system Plasmodium berghei. Briefly: Inhibition of Plasmodium berghei infection in mice (Mus musculus) at 15 mg/kg subcutaneous dose (experiment 2). It is filed as functional. As to conditions: sc.
For test [9], the system named is Plasmodium berghei. The test is described as follows: Inhibition of Plasmodium berghei infection in mice (Mus musculus) at 15 mg/kg subcutaneous dose (experiment 3). The class given is functional. As to conditions: sc.
The subject of test [10] is Plasmodium berghei. Briefly: Inhibition of Plasmodium berghei in mice (Mus musculus) after 15 mg/kg subcutaneous dose (experiment 1). It is filed as functional. As to conditions: sc.
Test [11] concerns Plasmodium berghei. Briefly: Inhibition of Plasmodium berghei infection in mice (Mus musculus) at 25 mg/kg peroral dose (expt 2). The class given is functional. As to conditions: route oral.
For test [12], the system named is Plasmodium berghei. Briefly: Inhibition of Plasmodium berghei infection in mice (Mus musculus) at 200 mg/kg subcutaneous dose (expt 2). The class given is functional. As to conditions: sc.
Test [13] has as its system Plasmodium berghei. Briefly: Inhibition of Plasmodium berghei infection in mice (Mus musculus) at 200 mg/kg subcutaneous dose (experiment 1). The class given is functional. As to conditions: sc.
In test [14] the test system is Plasmodium berghei. The test is described as follows: Inhibition of Plasmodium berghei infection in mice (Mus musculus) at 100 mg/kg subcutaneous dose (expt 1). The class given is functional. As to conditions: sc.
Test [15] deals with Plasmodium berghei. Briefly: Inhibition of Plasmodium berghei infection in mice (Mus musculus) at 200 mg/kg subcutaneous dose (expt 3). As to conditions: sc. It is filed as functional.
Test [16] has as its system Plasmodium berghei. The test is described as follows: Inhibition of Plasmodium berghei infection in mice (Mus musculus) at 100 mg/kg subcutaneous dose (experiment 2). It is filed as functional. As to conditions: sc.
Test [17] relates to Plasmodium berghei. Briefly: Inhibition of Plasmodium berghei infection in mice (Mus musculus) at 100 mg/kg subcutaneous dose (expt 3). As to conditions: sc. The class given is functional.

On to `CC1(C)CCC2=C(O1)c1ccccc1C(=O)C2=O` [LAPACHONE], for which the values for the inhibition in vivo at 200 mg/kg in the test on Plasmodium berghei [1] and in the test on Plasmodium berghei [2] were 28% and 34%, respectively.

Consider `C=CCC1Cc2c(c3ccccc3c3nc4ccccc4nc23)OC1(C)C` (configuration not stated), for which the IC50 in the test on Plasmodium falciparum [3], in the test on Plasmodium falciparum [4], in the test with Plasmodium falciparum [5] and with Plasmodium falciparum [6] was more than 20 µM in each case.

As for `CCN(CC)CCCC(C)Nc1ccnc2cc(Cl)ccc12` (configuration not stated) [CHLOROQUINE], the inhibition in vivo (as a rule, the drop in the measured response relative to a control, in per cent) at 25 mg/kg in the test on Plasmodium berghei [7] stood at 99%; in the test on Plasmodium berghei [11], 98%. In addition, the inhibition in vivo at 15 mg/kg in the test on Plasmodium berghei [8], with Plasmodium berghei [9] and in the test on Plasmodium berghei [10] was 99% throughout.

Regarding `CC1(C)Oc2c(c3nc4ccccc4nc3c3ccccc23)CC1S(=O)(=O)O` (configuration not stated), the inhibition in vivo at 200 mg/kg is 40% with Plasmodium berghei [12]; 50% in the test on Plasmodium berghei [13]; 33% in the test on Plasmodium berghei [1]; 36% with Plasmodium berghei [2]; 98% in the test with Plasmodium berghei [15]. In addition, the IC50 – broadly, the concentration that inhibits the measured activity by half – in the test with Plasmodium falciparum [3] came out at 2.43 µM; in the test on Plasmodium falciparum [4], 1.75 µM; with Plasmodium falciparum [5], 1.67 µM; with Plasmodium falciparum [6], 6.14 µM. For the same molecule, the figures for the inhibition in vivo at 100 mg/kg in the test with Plasmodium berghei [14] and in the test with Plasmodium berghei [16] were 34% and 31%, respectively.

For `CC(C)=CCc1c(O)c2ccccc2c2nc3ccccc3nc12`, the IC50 was determined as 3.72 µM in the test with Plasmodium falciparum [3], 3.14 µM in the test on Plasmodium falciparum [4], 3.54 µM with Plasmodium falciparum [5] and 9.44 µM with Plasmodium falciparum [6].

Regarding `CC1(C)Oc2c(c3nc4ccccc4nc3c3ccccc23)CC1I` (configuration not stated), the IC50 stood at 4.26 µM in the test on Plasmodium falciparum [3], 2.3 µM with Plasmodium falciparum [4], 3.22 µM in the test on Plasmodium falciparum [5] and 6.65 µM in the test with Plasmodium falciparum [6].

With `CC(C)=CCC1=C(O)C(=O)c2ccccc2C1=O` [LAPACHOL], the inhibition in vivo at 200 mg/kg in the test with Plasmodium berghei [1] and in the test with Plasmodium berghei [2] was 0% in each case.

As to `CC1(C)Oc2c(c3nc4ccccc4nc3c3ccccc23)CC1Br` (configuration not stated), the inhibition in vivo at 200 mg/kg came out at 0% in the test with Plasmodium berghei [12]; 0% with Plasmodium berghei [13]; 11% in the test with Plasmodium berghei [1]; 10% in the test with Plasmodium berghei [2]; 0% with Plasmodium berghei [15]. Further, the IC50 was 4.07 µM in the test on Plasmodium falciparum [3], 1.9 µM with Plasmodium falciparum [4], 3.04 µM with Plasmodium falciparum [5] and 8.75 µM in the test on Plasmodium falciparum [6]. The inhibition in vivo at 100 mg/kg in the test on Plasmodium berghei [14], in the test on Plasmodium berghei [16] and with Plasmodium berghei [17] was 0% in each case.

As for `CC1(C)CCc2c(c3ccccc3c3nc4ccccc4nc23)O1`, the IC50 in the test on Plasmodium falciparum [3], with Plasmodium falciparum [4], in the test on Plasmodium falciparum [5] and in the test with Plasmodium falciparum [6] was more than 20 µM each time.

For `c1ccc2c(c1)ccc1nc3ccccc3nc12` [BENZO[A]PHENAZINE], the half-maximal inhibitory concentration (IC50) with Plasmodium falciparum [3], with Plasmodium falciparum [4], in the test with Plasmodium falciparum [5] and in the test with Plasmodium falciparum [6] was more than 20 µM in each case.
